Data from patent publication EP4635500A1, “THERAPEUTIC AGENT FOR BACTERIAL INFECTION” (Sumitomo Pharma Co., Ltd., priority 2022, dated 2024).

Tested on: Enterobacterales
Assay: MIC, broth microdilution, CDC/FDA Antibiotic Resistance Isolate Bank (Example 7, Tables 8, 11, 12)
Type: cell-based
[1] = 154 strains of Enterobacterales

colistin
32 µg/mL: MIC (Klebsiella pneumoniae KUB No. 5827, AR Bank #522) | MIC (Klebsiella pneumoniae, KUB No. 5603, AR Bank # 106) | MIC (Klebsiella pneumoniae, KUB No. 5606, AR Bank # 109)
64 µg/mL: MIC (Klebsiella pneumoniae, KUB No. 55, AR Bank# 47) | MIC (Klebsiella pneumoniae, KUB No. 5584, AR Bank # 87)
0.2 µg/mL: MIC (Escherichia, KUB No. 57, AR Bank # 436 (row cut off))
4 µg/mL: MIC (Klebsiella pneumoniae KUB No. 5828, AR Bank #523) | MIC (Klebsiella pneumoniae, KUB No. 5537, AR Bank# 40) | MIC (Klebsiella pneumoniae, KUB No. 5543, AR Bank# 46)
16 µg/mL: MIC (Klebsiella pneumoniae KUB No. 5830, AR Bank #525)
8 µg/mL: MIC80 [1] | MIC (Enterobacter aerogenes, KUB No. 5559, AR Bank # 62) | MIC (Enterobacter cloacae, KUB No. 5570, AR Bank # 73) | MIC (Enterobacter cloacae, KUB No. 5660, AR Bank # 163) | MIC (Klebsiella pneumoniae KUB No. 5812, AR Bank #507) | MIC (Klebsiella pneumoniae, KUB No. 5594, AR Bank # 97)
2 µg/mL: MIC (Klebsiella pneumoniae KUB No. 5829, AR Bank #524)
1 µg/mL: MIC (Citrobacter fremidii, KUB No. 5613, AR Bank # 116) | MIC (Enterobacter cloacae group, KUB No. 5629, AR Bank # 132) | MIC (Enterobacter cloacae, KUB No. 5590, AR Bank # 93) | MIC (Enterobacter cloacae, KUB No. 5761, AR Bank # 365) | MIC (Escherichia coli, KUB No. 5564, AR Bank # 67) | MIC (Escherichia coli, KUB No. 5615, AR Bank # 118) | MIC (Klebsiella ozaenae, KUB No. 5593, AR Bank # 96) | MIC (Klebsiella pneumoniae KUB No. 5809, AR Bank #504) | MIC (Klebsiella pneumoniae KUB No. 5810, AR Bank #505) | MIC (Klebsiella pneumoniae, KUB No. 5565, AR Bank # 68)
0.5 µg/mL: MIC50 [1] | MIC (Enterobacter aerogenes, KUB No. 5571, AR Bank # 74) | MIC (Enterobacter cloacae KUB No. 5792, AR Bank #448) | MIC (Enterobacter cloacae KUB No. 5807, AR Bank #501) | MIC (Enterobacter cloacae KUB No. 5808, AR Bank #502) | MIC (Enterobacter cloacae complex, KUB No. 5661, AR Bank # 164) | MIC (Enterobacter cloacae, KUB No. 5529, AR Bank# 32) | MIC (Enterobacter cloacae, KUB No. 5535, AR Bank# 38) | MIC (Enterobacter cloacae, KUB No. 5557, AR Bank# 60) | MIC (Enterobacter cloacae, KUB No. 5562, AR Bank # 65) | MIC (Enterobacter cloacae, KUB No. 5763, AR Bank # 367) | MIC (Enterobacter cloacae, KUB No. 5778, AR Bank # 432) | MIC (Escherichia coli, KUB No. 5545, AR Bank# 48) | MIC (Escherichia coli, KUB No. 5552, AR Bank# 55) | MIC (Escherichia coli, KUB No. 5555, AR Bank# 58) | MIC (Escherichia coli, KUB No. 5578, AR Bank # 81) | MIC (Escherichia coli, KUB No. 5581, AR Bank # 84) | MIC (Escherichia coli, KUB No. 5586, AR Bank # 89) | MIC (Escherichia coli, KUB No. 5601, AR Bank # 104) | MIC (Escherichia coli, KUB No. 5611, AR Bank # 114) | MIC (Escherichia coli, KUB No. 5616, AR Bank # 119) | MIC (Escherichia coli, KUB No. 5764, AR Bank # 368) | MIC (Escherichia coli, KUB No. 5765, AR Bank # 369) | MIC (Escherichia coli, KUB No. 5768, AR Bank # 372) | MIC (Escherichia coli, KUB No. 5769, AR Bank # 373) | MIC (Escherichia coli, KUB No. 5770, AR Bank # 374) | MIC (Escherichia coli, KUB No. 5780, AR Bank # 434) | MIC (Klebsiella oxytoca, KUB No. 5568, AR Bank # 71) | MIC (Klebsiella oxytoca, KUB No. 5776, AR Bank # 380) | MIC (Klebsiella ozaenae, KUB No. 5548, AR Bank# 51) | MIC (Klebsiella pneumoniae KUB No. 5784, AR Bank #438) | MIC (Klebsiella pneumoniae KUB No. 5797, AR Bank #453) | MIC (Klebsiella pneumoniae KUB No. 5811, AR Bank #506) | MIC (Klebsiella pneumoniae, KUB No. 5531, AR Bank# 34) | MIC (Klebsiella pneumoniae, KUB No. 5536, AR Bank# 39) | MIC (Klebsiella pneumoniae, KUB No. 5546, AR Bank# 49) | MIC (Klebsiella pneumoniae, KUB No. 5563, AR Bank # 66) | MIC (Klebsiella pneumoniae, KUB No. 5572, AR Bank # 75) | MIC (Klebsiella pneumoniae, KUB No. 5577, AR Bank # 80) | MIC (Klebsiella pneumoniae, KUB No. 5604, AR Bank # 107) | MIC (Klebsiella pneumoniae, KUB No. 5609, AR Bank # 112)
>64 µg/mL: MIC90 [1]
